Results on five compounds are retold here after US6384193B1, “Agents for the regulation of oestrogen synthesis” (Imperial College of Science Technology and Medicine, priority 1996, dated 2002).

Series [1] concerns MCF-7 breast cancer cells. The settings on record: MCF-7 cells, Singh et al. 1995, cited from earlier work.
For series [2], the system named is aromatase activity. The settings on record: IL-6 stimulated fibroblasts derived from sub-cutaneous adipose tissue; Singh et al. 1995; cited from earlier work.
The subject of series [3] is IL-6 plus IL-6sR stimulated aromatase activity. Put plainly: IL-6 plus IL-6sR stimulated aromatase activity in fibroblasts derived from normal breast tissue. Format: cell-based. To be noted: Arohib 125 μM added 3 h prior to IL-6 50 ng/ml + IL-6sR 100 ng/ml, serum-free medium. Here is the method:
Aromatase activity was assessed in primary cultures of stromal fibroblasts derived from sub-cutaneous adipose tissue. Cells were grown until 80% confluent when they were washed with Earle's balanced salt solution (5 ml) and cultured for 24 h in phenol red-free, serum-free Eagle's minimum essential medium. Experimental media were then added in the presence of dexamethasone (100 nmol/l), IL-6 (50 ng/ml, Bachem, Cambridge, U.K.), or IL-6 plus IL-6sR (250 ng/ml, R & D System Europe Ltd., Abingdon, U.K.) and incubated for a further 48 h.
Aromatase activity was assayed in intact fibroblast monolayers by measuring the production of hu 3H2O from [1β-^3H] androstenedione (15-30 Ci/mmol, NEN-DuPont, Stevenage, U.K.) over a 20 h period (Newton et al., 1986). Aromatase activity measured under these conditions was linear with respect to time for up to 20 h (Macdiarmid et al., 1994). Cell number was determined by counting cell nuclei using a Coulter counter.
To examine the ability of Arohib to block the interaction of IL-6sR with gp130, fibroblasts were derived from normal breast tissue and cultured in growth medium containing fetal calf serum. When cells were 80% confluent, this medium was removed and replaced with serum-free medium. Cells were then treated as shown below with the results illustrated in FIG. 2.

For the compound 4-hydroxytamoxifen [4-OHT], the “effect on oestradiol-induced increase of IL-6sR release” value in series [1] (with oestradiol) is given as “blocked the ability of oestradiol to increase IL-6sR release”. Further, the “effect on IL-6sR release” value in series [1] was “small stimulatory effect”.
Take `C[C@]12CC[C@@H]3c4ccc(O)cc4CC[C@H]3[C@@H]1CC[C@@H]2O` [Oestradiol, oestradiol]: in series [1], the “effect on IL-6sR release” value was “markedly increased”.
Turning to IL-6: cytokine interleukin-6, in series [2], the “aromatase activity (in words)” value is “Significant arbmatase activity was detectable”.
As to TNFα, the “effect on IL-6sR release” value in series [1] was “markedly increased”.
For “YRLRFELRYRAERSKT (PEPTIDE (1)..(16) sequence of a synthetic peptide corresponding to the regulatory site residues 249-264 of interleukin-6 receptor (IL-6R)) [Arohib, 16 amino acid peptide based upon part of the IL-6R external domain]”, in series [3], the “reduction in the ability of IL-6/IL-6sR to stimulate aromatase activity” value came out at 67%.
